# According to PubChem BioAssay AID651851 (Broad Institute, 2012):
# The source made the active and inactive calls. No rule for the calls is given here.
# Tested on: Mycobacterium tuberculosis log-phase replicating growth inhibition
# Assay: growth inhibition of replicating M. tuberculosis, dose response, counter-screen, log phase (AID 651851)
# Settings: not given
row,Compound,IC90
1,O=S(Cc1cn(Cc2ccccc2)nn1)c1nnc(-c2ccc(Cl)cc2)o1 (stereo not drawn),62 µM
2,O=S(Cc1ccccc1)c1nnc(-c2ccccc2)o1 (stereo not drawn),31 µM
3,O=S(Cc1cn(Cc2ccc(F)cc2)nn1)c1nnc(-c2ccc(Cl)cc2)o1 (stereo not drawn),62 µM
4,O=S(=O)(Cc1cn(Cc2ccccc2)nn1)c1nnc(-c2ccc(Cl)cc2)o1,62 µM
5,O=S(=O)(Cc1ccccc1)c1nnc(-c2ccccc2)o1,62 µM
6,c1ccc(CSc2nnc(-c3ccccc3)o2)cc1,250 µM

# Tested on: not listed separately
# Assay: as above
# Settings: Mycobacterium tuberculosis log-phase replicating growth inhibition
row,Compound,outcome
1,Fc1ccc(Cn2cc(CSc3nnc(-c4ccc(Cl)cc4)o3)nn2)cc1,inactive
2,Clc1ccc(-c2nnc(SCc3cn(Cc4ccccc4)nn3)o2)cc1,inactive
